In patent publication US20230292744A1, “FLYING PEST CONTROL COMPOSITION AND FLYING PEST CONTROL SPRAY” (Kao Corporation, priority 2019, published 2023):

Experiments:
Format in all cases: physicochemical
[1] = Surface tension at 25° C. by the Wilhelmy method; conditions: 3 mmol/kg aqueous solution of the wetting agent, value 10 minutes after immersion
Text: With respect to respective wetting agents described in Table 1, one obtained by dissolving each wetting agent in water to prepare an aqueous solution having a concentration of 3 mmol/kg was used as a measurement sample. With respect to a flying pest exterminating composition described of each of the Examples, the foregoing composition was used as it was as a measurement sample. These measurement samples were each poured into a glass-made Petri dish having a diameter of 6.4 cm and a depth of 3.8 cm, and after removing air bubbles on the water surface, the measurement was performed in the state that the resulting sample was allowed to stand still for 30 minutes or more. In the present measurement, using a surface tension balance “K100” (manufactured by KRÜSS GmbH), a platinum plate was kept immersed in the aforementioned aqueous solution in a depth of 1 mm, and a measured value 10 minutes after the immersion was taken as a value of the surface tension.

[2] = system: Wings of Aedes albopictus (female); experiment: Contact angle against wings of mosquito; conditions: 0.5 μL of 3 mmol/kg aqueous solution, 25° C., one second after dropping, θ/2 method
Text: Wings of Aedes albopictus (female) were collected, and 8 to 10 pieces of the collected wings were arranged without generating gaps on a double-sided tape (“NITTO TAPE”, manufactured by Nitto Denko Corporation).

[3] = Reach amount of sprayed droplets; conditions: spray container A, horizontal distance 30 cm, per spraying (five trigger operations)
Method: A spray in which a 3 mmol/kg aqueous solution of the wetting agent shown in Table 1 was filled in a spray container A shown in Table 2 was prepared.
In the evaluation method described in the preceding section, one in which instead of the mesh net (3), a paper towel (“Kim Towel White”, manufactured by Nippon Paper Crecia Co., Ltd.) cut into a size of 6 cm×6 cm was stuck to the front face (11) of the frame (1) with a double-sided tape was prepared. Before the evaluation, the total weight of the frame (1) and the paper towel was measured, and then, the spray was fixed at a position where the horizontal distance d until the front face (11) of the frame (1) was 30 cm such that the tip of the spray nozzle (that is, the ejection port) (41) of the spray container (4) reached, and the trigger operation was performed five times toward the inside of the frame (1) to spray the aqueous solution. After spraying, the weights of the frame (1) and the paper towel were measured, and a reach amount of the sprayed droplets per spraying was calculated according to the following calculation equation.
(Reach amount of sprayed droplets (mg/cm^2 per time)={(Weights of frame and paper towel after spraying)−(Weights of frame and paper towel before spraying)}/(Area (36 cm^2) of paper towel)/(Spraying time (five times))
It can be judged that the wetting agent is one in which the larger the reach amount of sprayed droplets, the higher the straightness of the spray droplets when used for the flying pest exterminating composition, and the more excellent the action of capable of efficiently reaching the flying pests.

Compound | 25° C. surface tension [1] | Contact angle against wing of mosquito [2] | Reach amount of sprayed droplets of 3 mmol/kg aqueous solution [3]
CCCCC(CC)COCC(O)CO (stereo not drawn) [e, 2-Ethylhexyl glyceryl ether] | 38.30 mN/m | 79.1 ° | 1.7 mg/cm^2
CCCCCCCCCCCCOS(=O)(=O)[O-].[Na+] [g, Sodium lauryl sulfate] | 29.20 mN/m | 111.0 ° | 5.7 mg/cm^2
C10-C14 alkyl glucoside [b] | 29.61 mN/m | 55.0 ° | 1.7 mg/cm^2
Polyoxyethylene(9) lauryl ether [c] | 31.82 mN/m | 64.8 ° | 2.4 mg/cm^2
Polyoxyethylene(47) lauryl ether [j] | 50.54 mN/m | 116.4 ° | 6.1 mg/cm^2

Continued, values first:

25° C. surface tension [1] | Contact angle against wing of mosquito [2] | Reach amount of sprayed droplets of 3 mmol/kg aqueous solution [3] | Compound
32.68 mN/m | 80.0 ° | 3.1 mg/cm^2 | Benzalkonium chloride
26.13 mN/m | 54.0 ° | 0.2 mg/cm^2 | Polyoxyethylene(3) lauryl ether [i]
27.34 mN/m | 38.6 ° | 0.5 mg/cm^2 | Polyoxyethylene(5) lauryl ether
36.09 mN/m | 71.9 ° | 2.6 mg/cm^2 | Polyoxyethylene(12) lauryl ether [d]
42.13 mN/m | 113.8 ° | 3.2 mg/cm^2 | Polyoxyethylene(19) lauryl ether [f]
